{"source": "patent US7642283B2", "about": "“Mitochrondrial permeability transition pore affinity labels and modulators” (Hoffmann-La Roche Inc., priority 2003, dated 2010)", "key": {"[1]": {"test_system": "T1, MPTP", "T1 construct": "other: n=2; 30 min after addition of 200 μM Ca2+", "assay": "Ca2+-induced swelling in deenergized liver mitochondria", "format": "biochemical", "conditions": "n=2; 30 min after addition of 200 μM Ca2+; read-out: EC50 of MPTP inhibition in deenergized mitochondria"}, "[2]": {"test_system": "MPTP", "assay": "MPTP induced by phenylarsineoxide or ATR", "format": "biochemical"}, "[3]": {"target": "Cyp-D (Homo sapiens, UniProt P30405)", "sequence (P30405 30-207)": "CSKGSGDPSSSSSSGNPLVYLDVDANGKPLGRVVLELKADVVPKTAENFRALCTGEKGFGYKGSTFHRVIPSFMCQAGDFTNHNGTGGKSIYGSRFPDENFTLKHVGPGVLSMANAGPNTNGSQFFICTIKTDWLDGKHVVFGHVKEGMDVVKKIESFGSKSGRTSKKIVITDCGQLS", "assay": "Cyp-D peptidyl prolyl cis-trans isomerase enzymatic activity", "format": "biochemical", "conditions": "at concentrations completely blocking MPTP"}, "[4]": {"target": "T2, MPTP (Rattus norvegicus, UniProt Q9Z2L0)", "T2 construct": "other: n=2; glutamate/malate; other: glutamate/malate; 20 min; mean±SEM; unit not given; other: 300 nM; relieved by 50 μM Ub5", "T2 sequence (Q9Z2L0 2-283)": "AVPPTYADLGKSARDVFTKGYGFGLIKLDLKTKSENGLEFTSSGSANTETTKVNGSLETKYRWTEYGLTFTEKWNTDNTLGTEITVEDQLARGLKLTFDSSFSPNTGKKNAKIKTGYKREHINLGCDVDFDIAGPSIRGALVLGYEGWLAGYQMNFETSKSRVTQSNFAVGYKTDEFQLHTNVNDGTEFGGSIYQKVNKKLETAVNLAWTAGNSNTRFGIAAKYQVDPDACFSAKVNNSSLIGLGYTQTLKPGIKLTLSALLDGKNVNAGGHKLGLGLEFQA", "assay": "Ca2+-retention capacity of rat brain mitochondria (Calcium Green-5N)", "format": "biochemical", "conditions": "1 μM compound; 5 μM Ca2+ pulses; mean±SEM of 3; control 530±70", "experimental": "FIG. 4: (A) Effect of Spiro[cyclopentane-1,5′-[5H]dibenzo[a,d]cyclohepten]-2-one,10′,11′-dihydro-3-methylene- and CsA on Ca^2+-retention capacity of rat brain mitochondria. The incubation medium contained 0.2 M sucrose, 10 mM Tris-Mops, pH 7.4, 1 mM Pi-Tris, 5 μM EGTA and 5 mM glutamate/2.5 mM malate, buffered to pH 7.4 with Tris, containing 0.01% (w/v) bovine serum albumin and 1 μM Calcium Green-5N. The final volume was 2.5 ml. Trace (a) control, (b) 1 μM CsA, (c) 1 μM Spiro[cyclopentane-1,5′-[5H]dibenzo[a,d]cyclohepten]-2-one,10′,11′-dihydro-3-methylene- and (d) 1 μM CsA plus 1 μM Spiro[cyclopentane-1,5′-[5H]dibenzo[a,d]cyclohepten]-2-one,10′,11′-dihydro-3-methylene-. Each fluorescence spike corresponds to addition of 5 μM Ca^2+. (B) Comparison of Ca^2+-retention capacity in liver (a) and brain mitochondria (b).\nEffect of Spiro[cyclopentane-1,5′-[5H]dibenzo[a,d]cyclohepten]-2-one,10′,11′-dihydro-3-methylene- and CsA on Ca^2+-retention capacity of rat brain mitochondria (FIG. 4). Measurement of extramitochondrial Ca^2+ was determined using a Perkin-Elmer LS-50B fluorimeter controlled by the FL WinLab computer program. […] The final volume was 2.5 ml and the cuvette was thermostated at 25° C. Brain mitochondria were then subjected to a train of 5 μM Ca^2+ additions (˜150 nmol mg protein^−1). Extramitochondrial Ca^2+ was monitored at excitation/emission wavelengths of 505-535. […] The Ca^2+-retention capacity in liver (a) and brain mitochondria (b) were also compared (FIG. 4B).\nThe effect of Spiro[cyclopentane-1,5′-[5H]dibenzo[a,d]cyclohepten]-2-one,10′,11′-dihydro-3-methylene- at inhibiting MPTP was also investigated in mitochondria isolated from rat forebrain. […] Due to the difficulties mentioned above, the effect of Spiro[cyclopentane-1,5′-[5H]dibenzo[a,d]cyclohepten]-2-one,10′,11′-dihydro-3-methylene- on MPTP in brain mitochondria was more accurately investigated by subjecting mitochondria isolated from rat forebrain to a series of Ca^2+ pulses (5 μM, ˜150 nmol mg protein^−1) and by monitoring extramitochondrial Ca^2+ or using fluororescent probes."}, "[5]": {"target": "T3, YVDAC1 (Saccharomyces cerevisiae, UniProt P04840)", "T3 construct": "expressed in transfected cells; host or cells: Δpor1 yeast strain carrying a YVDAC1 plasmid; isolated mitochondria", "T3 sequence (P04840 2-283)": "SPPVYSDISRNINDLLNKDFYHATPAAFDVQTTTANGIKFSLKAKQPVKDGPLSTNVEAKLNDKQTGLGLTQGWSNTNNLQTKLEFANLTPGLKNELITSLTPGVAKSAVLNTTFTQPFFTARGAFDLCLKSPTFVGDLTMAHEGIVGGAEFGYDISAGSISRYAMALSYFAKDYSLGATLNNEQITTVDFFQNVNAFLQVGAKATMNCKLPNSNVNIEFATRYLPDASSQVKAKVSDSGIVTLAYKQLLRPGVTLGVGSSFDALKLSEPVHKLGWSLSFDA", "assay": "Affinity labeling of yeast mitochondria (Δpor1 and Δpor1 expressing YVDAC1)", "format": "binding", "conditions": "Δpor1 yeast mitochondria expressing YVDAC1; increasing concentration", "from_the_text": "FIG. 9: Spiro[cyclopentane-1,5′-[5H]dibenzo[a,d]cyclohepten]-2-one,10′,11′-t2-10′,11′-dihydro-3-methylene affinity labeling of yeast mitochondria lacking the por1 gene for YVDAC1 (Δpor1) and into Δpor1 yeast mitochondria transfected with YVDAC1 in presence or absence of different concentrations of Spiro[cyclopentane-1,5′-[5H]dibenzo[a,d]cyclohepten]-2-one,10′,11′-dihydro-3-methylene (unlabeled). The fluorograms of gels after SDS-PAGE are shown. Mitochondria isolated from yeast strains were incubated in the presence of 10 nM Spiro[cyclopentane-1,5′-[5H]dibenzo[a,d]cyclohepten]-2-one,10′,11′-t2-10′,11′-dihydro-3-methylene for 15 min at 25° C. Numbers indicate the concentrations (μM) of the various compounds added.\nTo further confirm VDAC1 as the protein target of Spiro[cyclopentane-1,5′-[5H]dibenzo[a,d]cyclohepten]-2-one,10′,11′-dihydro-3-methylene-, the labeling of proteins in mitochondria prepared from yeasts by Spiro[cyclopentane-1,5′-[5H]dibenzo[a,d]cyclohepten]-2-one,10′,11′-t2-10′,11′-dihydro-3-methylene- was investigated. […] Increasing concentration of unlabelled Spiro[cyclopentane-1,5′-[5H]dibenzo[a,d]cyclohepten]-2-one,10′,11′-dihydro-3-methylene-inhibited incorporation of the radioactivity (FIG. 9)."}}}
{"smiles": "C=C1CCC2(C1=O)c1ccccc1CCc1ccccc12", "note": "[Spiro[cyclopentane-1,5′-[5H]dibenzo[a,d]cyclohepten]-2-one,10′,11′-dihydro-3-methylene-]", "values": [{"measurement": "EC50", "setting": "[1]", "result": 370, "unit": "nM"}, {"measurement": "Inhibition of MPTP induced by ATR", "setting": "[2]; ATR 50 μM", "result": "inhibited"}, {"measurement": "Inhibition of MPTP induced by phenylarsineoxide", "setting": "[2]; phenylarsineoxide 25 μM", "result": "inhibited"}, {"measurement": "Inhibition of Cyp-D peptidyl prolyl cis-trans isomerase activity", "setting": "[3]", "result": "did not inhibit"}, {"measurement": "Ca2+-buffering capacity", "setting": "[4]", "result": "1200±120", "unit": "nmol Ca^2+ mg protein^−1"}, {"measurement": "Effect of unlabelled compound on incorporation of radioactivity", "setting": "[5]", "result": "inhibited"}]}
